Measured values published in patent US20250353841A1 (BIOGEN MA INC., priority 2022, published 2025).
pIC50: −log10 of the molar value.

tested on: mutant Huntington (HTT) protein; test: HTT Mutant HTRF iPSC assay (mHTT protein lowering); assay type: cell-based; conditions: human iPSC derived from a HTT patient with a poly-Q49 mutation

Compound | pIC50
Fc1cc(-c2ccc3nscc3c2)cn2cc(C3CCNCC3)nc12 [Compound 33, 5-(8-fluoro-2-(piperidin-4-yl)imidazo[1,2-a]pyridin-6-yl)benzo[c]isothiazole] | 5.05 to 6.00
Cc1cn2nc(-c3cc(F)c4nc([C@H]5[C@@H]6CN(C7CC7)C[C@@H]65)cn4c3)cc(C)c2n1 [Compound 204, 6-(2-((1R,5S,6r)-3-cyclopropyl-3-azabicyclo[3.1.0]hexan-6-yl)-8-fluoroimidazo[1,2-a]pyridin-6-yl)-2,8-dimethylimidazo[1,2-b]pyridazine] | 6.00 to 7.00
Cc1cn2nc(-c3cc(F)c4nc(NC(=O)C5CCCNC5)nn4c3)cc(C)c2n1 (single isomer, unassigned) [Compound 316] | 6.00 to 7.00
Cc1cn2nc(-c3cc(F)c4nn(C5CC6CNCC65)nc4c3)cc(C)c2n1 (racemic) [Compound 397, 2-(3-azabicyclo[3.2.0]heptan-6-yl)-6-(2,8-dimethylimidazo[1,2-b]pyridazin-6-yl)-4-fluoro-2H-benzo[d][1,2,3]triazole] | 6.00 to 7.00
Cc1cn2nc(-c3cc(F)c4nc(C5CCN(C)CC5)cn4c3)cc(C)c2n1 [Compound 111, 6-(8-fluoro-2-(1-methylpiperidin-4-yl)imidazo[1,2-a]pyridin-6-yl)-2,8-dimethylimidazo[1,2-b]pyridazine] | > 7.00
Cc1cc(-c2cc(F)c3nn(C4CCNCC4)nc3c2)nc2cn(C)nc12 [Compound 381, 6-(2,7-dimethyl-2H-pyrazolo[4,3-b]pyridin-5-yl)-4-fluoro-2-(piperidin-4-yl)-2H-benzo[d][1,2,3]triazole] | 6.00 to 7.00
Cc1cn2nc(-c3cn4cc(C5CCCNC5)cc(F)c4n3)cc(C)c2n1 (stereo not shown) [Compound 134, 6-(8-fluoro-6-(piperidin-3-yl)imidazo[1,2-a]pyridin-2-yl)-2,8-dimethylimidazo[1,2-b]pyridazine] | 5.05 to 6.00
Cc1cn2nc(-c3cc(F)c4nc(C5CCN(CC(C)(C)C)CC5)nn4c3)cc(C)c2n1 [Compound 436, 6-(2,8-dimethylimidazo[1,2-b]pyridazin-6-yl)-8-fluoro-2-(1-neopentylpiperidin-4-yl)-[1,2,4]triazolo[1,5-a]pyridine] | 6.00 to 7.00
Cc1cn2nc(-c3cc(F)c4nc(C5CCN(C6CC6)CC5)nn4c3)cc(C)c2n1 [Compound 433, 2-(1-cyclopropylpiperidin-4-yl)-6-(2,8-dimethylimidazo[1,2-b]pyridazin-6-yl)-8-fluoro-[1,2,4]triazolo[1,5-a]pyridine] | 6.00 to 7.00
CC(C)N1CC(C(=O)Nc2cn3cc(-c4cc(F)c5nn(C)cc5c4)cc(F)c3n2)C1 [Compound 291, N-(8-fluoro-6-(7-fluoro-2-methyl-2H-indazol-5-yl)imidazo[1,2-a]pyridin-2-yl)-1-isopropylazetidine-3-carboxamide] | 6.00 to 7.00
Cc1cc(-c2cc(F)c3nc(C4CCNCC4)cn3c2)nn2cnnc12 [Compound 105, 6-(8-fluoro-2-(piperidin-4-yl)imidazo[1,2-a]pyridin-6-yl)-8-methyl-[1,2,4]triazolo[4,3-b]pyridazine] | 5.05 to 6.00
Fc1ccc2nc(-c3cc(F)c4nc(C5CCNCC5)cn4c3)cn2c1 [Compound 122, 6,8′-difluoro-2′-(piperidin-4-yl)-2,6′-biimidazo[1,2-a]pyridine] | 5.05 to 6.00
Cc1cn2nc(-c3cc(F)c4nc([C@@]56CC[C@H](C5)NC6)cn4c3)cc(C)c2n1 (single isomer, unassigned) [Compound 116] | 5.05 to 6.00
Cc1cn2nc(-c3cc(F)c4nn(C5CCN(C)CC5)cc4c3)cc(C)c2n1 [Compound 364, 6-(7-fluoro-2-(1-methylpiperidin-4-yl)-2H-indazol-5-yl)-2,8-dimethylimidazo[1,2-b]pyridazine] | 6.00 to 7.00
Cc1cn2nc(-c3cc(F)c4nc(C5CCN(C)CC5)cn4c3)cc2c(C)n1 [Compound 220, 2-(8-fluoro-2-(1-methylpiperidin-4-yl)imidazo[1,2-a]pyridin-6-yl)-4,6-dimethylpyrazolo[1,5-a]pyrazine] | > 7.00
CNC12CC(c3cn4cc(-c5cc(C)c6nc(C)cn6n5)cc(F)c4n3)(C1)C2 [Compound 100, 3-(6-(2,8-dimethylimidazo[1,2-b]pyridazin-6-yl)-8-fluoroimidazo[1,2-a]pyridin-2-yl)-N-methylbicyclo[1.1.1] pentan-1-amine] | > 7.00
Cc1cn2nc(-c3cc(F)c4nc(NC(=O)CC5CCCN5)cn4c3)cc(C)c2n1 (stereo not shown) [Compound 273, N-(6-(2,8-dimethylimidazo[1,2-b]pyridazin-6-yl)-8-fluoroimidazo[1,2-a]pyridin-2-yl)-2-(pyrrolidin-2-yl)acetamide] | > 7.00
Cc1cn2nc(-c3cc(F)c4nc(N5CCCC(N(C)C)C5)oc4c3)cc(C)c2n1 (stereo not shown) [Compound 500, 1-(6-(2,8-dimethylimidazo[1,2-b]pyridazin-6-yl)-4-fluorobenzo[d]oxazol-2-yl)-N,N-dimethylpiperidin-3-amine] | 6.00 to 7.00
Cc1cn2nc(-c3cc(F)c4nc(NC(=O)C5CN(C6CC6)C5(C)C)cn4c3)cc(C)c2n1 (stereo not shown) [Compound 285, 1-cyclopropyl-N-(6-(2,8-dimethylimidazo[1,2-b]pyridazin-6-yl)-8-fluoroimidazo[1,2-a]pyridin-2-yl)-2,2-dimethylazetidine-3-carboxamide] | 6.00 to 7.00

Compound | pIC50
Cn1cc2cc(-c3cc(F)c4nc(C5CCNCC5)cn4c3)cc(F)c2n1 [Compound 93, 7-fluoro-5-(8-fluoro-2-(piperidin-4-yl)imidazo[1,2-a]pyridin-6-yl)-2-methyl-2H-indazole] | 6.00 to 7.00
Cc1nc2c(F)cc(-c3cc(F)c4[nH]c(C5CCNCC5)nc4c3)cn2n1 [Compound 149, 8-fluoro-6-(7-fluoro-2-(piperidin-4-yl)-1H-benzo[d]imidazol-5-yl)-2-methyl-[1,2,4]triazolo[1,5-a]pyridine] | 5.05 to 6.00
Cc1cn2nc(-c3cc(F)c4nc(N5CCC(N6CCCC6)CC5)oc4c3)cc(C)c2n1 [Compound 477, 6-(2,8-dimethylimidazo[1,2-b]pyridazin-6-yl)-4-fluoro-2-(4-(pyrrolidin-1-yl)piperidin-1-yl)benzo[d]oxazole] | 6.00 to 7.00
Cc1cn2nc(-c3cn4cc(C5CCNCC5)cc(F)c4n3)cc(C)c2n1 [Compound 131, 6-(8-fluoro-6-(piperidin-4-yl)imidazo[1,2-a]pyridin-2-yl)-2,8-dimethylimidazo[1,2-b]pyridazine] | 6.00 to 7.00
Cc1cn2nc(-c3cc(F)c4[nH]c(C5CCNC(C)C5)nc4c3)cc(C)c2n1 (stereo not shown) [Compound 418, 6-(7-fluoro-2-(2-methylpiperidin-4-yl)-1H-benzo[d]imidazol-5-yl)-2,8-dimethylimidazo[1,2-b]pyridazine] | 6.00 to 7.00
CCc1nc(C)cn2cc(-c3cc(F)c4nc(C5CCN(CC)CC5)cn4c3)cc12 [Compound 175, 6-(1-ethyl-3-methylpyrrolo[1,2-a]pyrazin-7-yl)-2-(1-ethylpiperidin-4-yl)-8-fluoroimidazo[1,2-a]pyridine] | 6.00 to 7.00
Cc1cn2nc(-c3cc(F)c4nc([C@H]5C[C@]6(CCNC6)C5)cn4c3)cc(C)c2n1 [Compound 191, 6-(8-fluoro-2-((2s,4s)-6-azaspiro[3.4]octan-2-yl)imidazo[1,2-a]pyridin-6-yl)-2,8-dimethylimidazo[1,2-b]pyridazine] | > 7.00
Cc1cn2nc(-c3cc(F)c4nc(N5CCC6(CN(C)C6)C5)oc4c3)cc(C)c2n1 [Compound 472, 6-(2,8-dimethylimidazo[1,2-b]pyridazin-6-yl)-4-fluoro-2-(2-methyl-2,6-diazaspiro[3.4]octan-6-yl)benzo[d]oxazole] | 6.00 to 7.00
Cc1cn2nc(-c3cc(F)c4nc(C5CCN(C(=O)C6CC6)CC5)cn4c3)cc(C)c2n1 [Compound 121, cyclopropyl(4-(6-(2,8-dimethylimidazo[1,2-b]pyridazin-6-yl)-8-fluoroimidazo[1,2-a]pyridin-2-yl)piperidin-1-yl)methanone] | 6.00 to 7.00
CN1C(=O)COc2cc(-c3cc(F)c4nc(C5CCNCC5)cn4c3)cnc21 [Compound 73, 7-(8-fluoro-2-(piperidin-4-yl)imidazo[1,2-a]pyridin-6-yl)-4-methyl-2H-pyrido[3,2-b][1,4]oxazin-3(4H)-one] | 5.05 to 6.00
Cc1cn2nc(-c3cc(F)c4nc([C@@H]5CCNC5)cn4c3)cc(C)c2n1 (single isomer, unassigned) [Compound 189] | > 7.00
Cc1cn2nc(-c3cc(F)c4nc(C5CCN(C6CC6)CC5)cn4c3)cc(C)c2n1 [Compound 113, 6-[2-(1-cyclopropyl-4-piperidyl)-8-fluoro-imidazo[1,2-a]pyridin-6-yl]-2,8-dimethyl-imidazo[1,2-b]pyridazine] | > 7.00
Cc1cn2nc(-c3cc(F)c4nc(NC(=O)C5CNC5(C)C)cn4c3)cc(C)c2n1 (racemic) [Compound 260, N-(6-(2,8-dimethylimidazo[1,2-b]pyridazin-6-yl)-8-fluoroimidazo[1,2-a]pyridin-2-yl)-2,2-dimethylazetidine-3-carboxamide] | 6.00 to 7.00
CCN1CCC(c2nc3cc(-c4cc(C)c5nc(C)cn5n4)cc(F)c3[nH]2)CC1 [Compound 425, 6-(2-(1-ethylpiperidin-4-yl)-7-fluoro-1H-benzo[d]imidazol-5-yl)-2,8-dimethylimidazo[1,2-b]pyridazine] | 6.00 to 7.00
Cc1cn2cc(-c3cc(F)c4nc(C5CCNCC5)cn4c3)cc2c(C)n1 [Compound 31, 6-(1,3-dimethylpyrrolo[1,2-a]pyrazin-7-yl)-8-fluoro-2-(piperidin-4-yl)imidazo[1,2-a]pyridine] | > 7.00
CCC1(N(C)C)CCN(c2nc3c(F)cc(-c4cc(C)c5nc(C)cn5n4)cc3o2)CC1 [Compound 492, 1-(6-(2,8-dimethylimidazo[1,2-b]pyridazin-6-yl)-4-fluorobenzo[d]oxazol-2-yl)-4-ethyl-N,N-dimethylpiperidin-4-amine] | > 7.00
CCc1nc(C)cn2cc(-c3cc(F)c4nc(C5CCNCC5)nn4c3)cc12 [Compound 152] | > 7.00
Cc1cn2nc(-c3cc(F)c4nc(C(=O)NC5CN(C(C)C)C5)cn4c3)cc(C)c2n1 [Compound 331, 6-(2,8-dimethylimidazo[1,2-b]pyridazin-6-yl)-8-fluoro-N-(1-isopropylazetidin-3-yl)imidazo[1,2-a]pyridine-2-carboxamide] | > 7.00
